Results as given in patent publication US20210283261A1, “Compositions and Methods for Treating ALK-Mediated Cancer” (ICAHN SCHOOL OF MEDICINE AT MOUNT SINAI, priority 2017, published 2021).

Legend:
Type in all cases: cell-based
NPM-ALK fusion protein = target: T1, NPM-ALK fusion protein (Homo sapiens, UniProt Q9UM73); assay: Western blot of NPM-ALK fusion protein levels in SU-DHL-1 cells; conditions: for effect on ALK fusion protein levels, concentration dependence: SU-DHL-1 cells, 0, 10, 20, 40, 80 and 160 nM; for effect on ALK fusion protein levels, concentration dependence / significantly reduced ALK fusion protein levels (degraders vs negative controls): 16 h; for rescue of induced ALK fusion protein degradation by MG-132 and MLN4924 / significantly reduced ALK fusion protein levels (degraders vs negative controls): SU-DHL-1 cells; for rescue of induced ALK fusion protein degradation by MG-132 and MLN4924: 2 h pre-treatment, then 100 nM compound for 6 h
T1 construct: endogenous in cells; host or cells: SU-DHL-1; the other entry of the earlier key: NPM1 (P06748, Nucleophosmin)
T1 sequence (Q9UM73 with tags, fused parts or gaps): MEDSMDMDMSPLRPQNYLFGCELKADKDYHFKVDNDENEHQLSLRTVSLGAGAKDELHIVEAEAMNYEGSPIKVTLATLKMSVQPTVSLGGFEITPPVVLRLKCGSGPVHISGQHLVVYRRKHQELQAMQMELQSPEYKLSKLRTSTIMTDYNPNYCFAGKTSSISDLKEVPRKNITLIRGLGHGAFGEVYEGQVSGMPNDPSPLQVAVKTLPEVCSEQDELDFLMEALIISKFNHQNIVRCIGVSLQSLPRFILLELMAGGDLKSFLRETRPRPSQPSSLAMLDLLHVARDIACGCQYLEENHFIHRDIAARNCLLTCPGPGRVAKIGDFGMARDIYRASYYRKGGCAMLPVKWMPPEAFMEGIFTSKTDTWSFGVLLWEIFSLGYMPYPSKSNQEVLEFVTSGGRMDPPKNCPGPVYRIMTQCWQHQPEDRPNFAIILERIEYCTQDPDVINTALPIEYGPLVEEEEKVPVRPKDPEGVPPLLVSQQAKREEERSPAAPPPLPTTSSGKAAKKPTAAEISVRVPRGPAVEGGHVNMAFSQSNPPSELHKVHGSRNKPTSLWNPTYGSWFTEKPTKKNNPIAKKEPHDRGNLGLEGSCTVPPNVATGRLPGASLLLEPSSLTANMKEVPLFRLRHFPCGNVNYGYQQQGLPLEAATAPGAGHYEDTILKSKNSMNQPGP
How it was run: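 SU-DHL-1 cells treated with DMSO or compound serial dilutions for 16 h, or at 30 nM or 100 nM for varying times. NPM-ALK and phospho-ALK (Tyr1507) levels measured by Western blot and normalized to GAPDH.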

ALK fusion protein = target: T2, ALK fusion protein (Homo sapiens, UniProt Q9UM73); assay: Western blot of ALK fusion protein levels in NCI-H3122 cells; conditions: for Dmax at 0.5 µM: NCI-H3122, NCI-H3122 cells, 500 nM, Western blot, read-out: ALK fusion protein degradation, NCI-H3122 (500 nM); for effect on ALK fusion protein levels, concentration dependence: NCI-H3122 cells, 0, 50, 100, 200, 400 and 800 nM; for effect on ALK fusion protein levels, concentration dependence / significantly reduced ALK fusion protein levels (degraders vs negative controls): 16 h; for significantly reduced ALK fusion protein levels (degraders vs negative controls): NCI-H3122 cells
T2 construct: endogenous in cells; host or cells: NCI-H3122; the other entry of the earlier key: EML4 (Q9HC35, Echinoderm microtubule-associated protein-like 4)
T2 sequence (Q9UM73 with tags, fused parts or gaps): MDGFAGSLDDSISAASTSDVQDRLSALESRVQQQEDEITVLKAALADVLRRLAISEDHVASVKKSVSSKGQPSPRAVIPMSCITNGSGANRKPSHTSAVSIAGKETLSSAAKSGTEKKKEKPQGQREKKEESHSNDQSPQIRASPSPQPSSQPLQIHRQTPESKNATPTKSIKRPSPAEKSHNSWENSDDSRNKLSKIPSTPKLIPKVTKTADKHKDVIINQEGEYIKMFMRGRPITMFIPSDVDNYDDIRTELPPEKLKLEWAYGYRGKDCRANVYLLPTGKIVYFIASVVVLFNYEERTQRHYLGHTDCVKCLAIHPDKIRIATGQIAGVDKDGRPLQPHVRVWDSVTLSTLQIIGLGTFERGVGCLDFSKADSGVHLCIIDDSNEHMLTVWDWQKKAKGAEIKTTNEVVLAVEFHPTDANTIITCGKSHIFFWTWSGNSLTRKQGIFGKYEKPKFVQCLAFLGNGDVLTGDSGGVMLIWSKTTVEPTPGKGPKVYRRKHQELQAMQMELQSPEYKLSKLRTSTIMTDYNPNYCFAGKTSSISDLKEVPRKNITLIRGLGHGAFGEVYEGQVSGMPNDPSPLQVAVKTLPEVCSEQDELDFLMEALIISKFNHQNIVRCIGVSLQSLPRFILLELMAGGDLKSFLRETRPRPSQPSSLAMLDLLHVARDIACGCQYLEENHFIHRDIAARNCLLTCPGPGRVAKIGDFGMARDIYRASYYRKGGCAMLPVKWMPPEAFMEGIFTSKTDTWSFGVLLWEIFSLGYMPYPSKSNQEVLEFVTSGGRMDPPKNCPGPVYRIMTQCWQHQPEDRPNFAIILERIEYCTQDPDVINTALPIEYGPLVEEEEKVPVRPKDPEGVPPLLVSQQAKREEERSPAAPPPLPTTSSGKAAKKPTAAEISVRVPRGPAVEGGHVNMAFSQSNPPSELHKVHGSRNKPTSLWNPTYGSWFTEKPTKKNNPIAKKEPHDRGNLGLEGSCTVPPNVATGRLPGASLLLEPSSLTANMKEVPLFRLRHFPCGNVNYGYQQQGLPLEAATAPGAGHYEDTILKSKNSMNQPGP

SU-DHL-1 cells = assay: Cell viability assay in SU-DHL-1 cells; conditions: 3 days
Protocol: (§1) SU-DHL-1 cells were seeded in 96-well plates at a density of 1×10^4 cells per well, in triplicate. Treated cells with DMSO or indicated serial dilutions of compounds for 2.5 days. Cell growth/survival was measured by using the CellTiter-Glo luminescent cell viability assay following the manufacturer's instructions (Promega) or CCK8 cell viability assay (Sigma). Data was analyzed by using the GraphPad Prism software, Error bars represent ±SD for triplicate experiments.
as §1, with “assay.” for “assay following the manufacturer's instructions (Promega) or CCK8 cell viability assay (Sigma).”, “experiments (left panel).” for “experiments.”
SU-DHL-1 cells were seeded in 96-well plates at a density of 5000 cells per well, in triplicate. The cells were treated with DMSO or indicated serial dilutions of compounds for 3 days. Cell growth was measured using the CellTiter-Glo luminescent cell viability assay. Data were analyzed using the GraphPad Prism.
(§2) SU-DHL-1 and NCI-3122 cells were treated with DMSO or indicated serial dilutions of compounds for 3 days. Data were analyzed using the GraphPad Prism.

NCI-H3122 cells = assay: Cell viability assay in NCI-H3122 cells; conditions: 3 days
Protocol: SU-DHL-1, NCI-H3122 and NCI-H2228 cells were cultured in RPMI-1640 medium supplemented with 10% fetal bovine serum, 50 μg/mL penicillin and streptomycin. Cells were cultured in a 37° C. incubator with 5% CO2.
as §2

ALK = assay: Characterization of ALK degraders in ALCL and NSCLC cells (summary); conditions: summary statement
Description: Specific exemplary ALK degraders/disruptors were characterized in various different anaplastic large cell lymphoma (ALCL) cells and non-small cell lung cancer (NSCLC) cells (Examples 4-19, FIGS. 1-18). […] This efficacy in suppressing ALK expression and ALK activity correlated with efficacy in inhibiting cancer cell proliferation.

Row | SMILES | effect on ALK fusion protein levels, concentration dependence (NPM-ALK fusion protein) | Dmax at 0.5 µM (ALK fusion protein) [%] | effect on ALK fusion protein levels, concentration dependence (ALK fusion protein) | inhibition of cell viability (SU-DHL-1 cells) | inhibition of cell viability (NCI-H3122 cells) | suppressing both ALK expression and ALK activity (ALK) | rescue of induced ALK fusion protein degradation by MG-132 and MLN4924 (NPM-ALK fusion protein) | significantly reduced ALK fusion protein levels (degraders vs negative controls) (NPM-ALK fusion protein) | significantly reduced ALK fusion protein levels (degraders vs negative controls) (ALK fusion protein)
1 | Cc1cc(Nc2ncc(Cl)c(Nc3ccccc3S(=O)(=O)C(C)C)n2)c(OC(C)C)cc1C1CCN(C(=O)CCCC(=O)N[C@H](C(=O)N2C[C@H](O)C[C@H]2C(=O)NCc2ccc(-c3scnc3C)cc2)C(C)(C)C)CC1 [CZ47-23, (2S,4R)-1-((S)-2-(5-(4-(4-((5-Chloro-4-((2-(isopropylsulfonyl)phenyl)amino)pyrimidin-2-yl)amino)-5-isopropoxy-2-methylphenyl)piperidin-1-yl)-5-oxopentanamido)-3,3-dimethylbutanoyl)-4-hydroxy-N-(4-(4-methylthiazol-5-yl)benzyl)pyrrolidine-2-carboxamide] | concentration-dependently reduced | > 80 | concentration-dependently reduced | significantly inhibited | significantly inhibited | especially effective | significantly rescued | significantly reduced | significantly reduced
2 | Cc1cc(Nc2ncc(Cl)c(Nc3ccccc3S(=O)(=O)C(C)C)n2)c(OC(C)C)cc1C1CCN(C(=O)CCCCC(=O)N[C@H](C(=O)N2C[C@H](O)C[C@H]2C(=O)NCc2ccc(-c3scnc3C)cc2)C(C)(C)C)CC1 [CZ47-24, (2S,4R)-1-((S)-2-(6-(4-(4-((5-Chloro-4-((2-(isopropylsulfonyl)phenyl)amino)pyrimidin-2-yl)amino)-5-isopropoxy-2-methylphenyl)piperidin-1-yl)-6-oxohexanamido)-3,3-dimethylbutanoyl)-4-hydroxy-N-(4-(4-methylthiazol-5-yl)benzyl)pyrrolidine-2-carboxamide] | concentration-dependently reduced | > 80 | concentration-dependently reduced | significantly inhibited | significantly inhibited | especially effective | significantly rescued | significantly reduced | significantly reduced
3 | Cc1cc(Nc2ncc(Cl)c(Nc3ccccc3S(=O)(=O)C(C)C)n2)c(OC(C)C)cc1C1CCN(C(=O)COCCOCC(=O)N[C@H](C(=O)N2C[C@H](O)C[C@H]2C(=O)N[C@@H](C)c2ccc(-c3scnc3C)cc2)C(C)(C)C)CC1 [HC58-98, (2S,4R)-1-((S)-2-(2-(2-(2-(4-(4-((5-Chloro-4-((2-(isopropylsulfonyl)phenyl)amino)pyrimidin-2-yl)amino)-5-isopropoxy-2-methylphenyl)piperidin-1-yl)-2-oxoethoxy)ethoxy)acetamido)-3,3-dimethylbutanoyl)-4-hydroxy-N—((S)-1-(4-(4-methylthiazol-5-yl)phenyl)ethyl)pyrrolidine-2-carboxamide] | concentration-dependently reduced | > 80 | concentration-dependently reduced | significantly inhibited | significantly inhibited | especially effective |  |  | 

Further lines, with some results ahead:

Row | effect on ALK fusion protein levels, concentration dependence (NPM-ALK fusion protein) | Dmax at 0.5 µM (ALK fusion protein) [%] | effect on ALK fusion protein levels, concentration dependence (ALK fusion protein) | SMILES | inhibition of cell viability (SU-DHL-1 cells) | inhibition of cell viability (NCI-H3122 cells) | suppressing both ALK expression and ALK activity (ALK) | rescue of induced ALK fusion protein degradation by MG-132 and MLN4924 (NPM-ALK fusion protein) | significantly reduced ALK fusion protein levels (degraders vs negative controls) (NPM-ALK fusion protein) | significantly reduced ALK fusion protein levels (degraders vs negative controls) (ALK fusion protein)
4 | concentration-dependently reduced | > 80 | concentration-dependently reduced | Cc1cc(Nc2ncc(Cl)c(Nc3ccccc3S(=O)(=O)C(C)C)n2)c(OC(C)C)cc1C1CCN(C(=O)CCCC(=O)N[C@H](C(=O)N2C[C@H](O)C[C@H]2C(=O)N[C@@H](C)c2ccc(-c3scnc3C)cc2)C(C)(C)C)CC1 [HC58-99, (2S,4R)-1-((S)-2-(5-(4-(4-((5-Chloro-4-((2-(isopropylsulfonyl)phenyl)amino)pyrimidin-2-yl)amino)-5-isopropoxy-2-methylphenyl)piperidin-1-yl)-5-oxopentanamido)-3,3-dimethylbutanoyl)-4-hydroxy-N—((S)-1-(4-(4-methylthiazol-5-yl)phenyl)ethyl)pyrrolidine-2-carboxamide] | significantly inhibited | significantly inhibited | especially effective |  |  | 
5 | concentration-dependently reduced | > 80 | concentration-dependently reduced | Cc1cc(Nc2ncc(Cl)c(Nc3ccccc3S(=O)(=O)C(C)C)n2)c(OC(C)C)cc1C1CCN(C(=O)CCCCC(=O)N[C@H](C(=O)N2C[C@H](O)C[C@H]2C(=O)N[C@@H](C)c2ccc(-c3scnc3C)cc2)C(C)(C)C)CC1 [HC58-100] | significantly inhibited | significantly inhibited | especially effective |  |  | 
